Data as given in patent US20180037903A1, “METHODS AND MEANS FOR INCREASING STRESS TOLERANCE AND BIOMASS IN PLANTS” (THE UNIVERSITY COURT OF THE UNIVERSITY OF GLASGOW, priority 2013, published 2018).
Values belong to the molecule of their own block, whether it stands above or below them.

B1: cYFP-HDA19 (C-terminal half of YFP fused to A. thaliana HISTONE DEACETYLASE 19) (enzyme, Arabidopsis thaliana, UniProt O22446 1-501, looked up)
chain: MDTGGNSLASGPDGVKRKVCYFYDPEVGNYYYGQGHPMKPHRIRMTHALLAHYGLLQHMQVLKPFPARDRDLCRFHADDYVSFLRSITPETQQDQIRQLKRFNVGEDCPVFDGLYSFCQTYAGGSVGGSVKLNHGLCDIAINWAGGLHHAKKCEASGFCYVNDIVLAILELLKQHERVLYVDIDIHHGDGVEEAFYATDRVMTVSFHKFGDYFPGTGHIQDIGYGSGKYYSLNVPLDDGIDDESYHLLFKPIMGKVMEIFRPGAVVLQCGADSLSGDRLGCFNLSIKGHAECVKFMRSFNVPLLLLGGGGYTIRNVARCWCYETGVALGVEVEDKMPEHEYYEYFGPDYTLHVAPSNMENKNSRQMLEEIRNDLLHNLSKLQHAPSVPFQERPPDTETPEVDEDQEDGDKRWDPDSDMDVDDDRKPIPSRVKREAVEPDTKDKDGLKGIMERGKGCEVEVDESGSTKVTGVNPVGVEEASVKMEEEGTNKGGAEQAFPPKT
notes: expressed transiently in tobacco leaf cells; not shown: C-terminal half of YFP (cYFP) from vector pBiFCt-2in1-NN

How the values were obtained:
A. thaliana seeds = assay: Germination assay on agar plates (seedlings with green cotyledons on day 6 after sowing); type: in vivo, Arabidopsis thaliana; details: for cumulative germination rate: increasing concentrations in agar, all lines (wildtype, hdc1-1, HDC1-OX), scored after 6 days
Description: (§1) All experiments were carried out in controlled growth rooms at a temperature of 20-22° C. and a light intensity of 120-150 μmol PAR. Plants were grown either in long days (16 h light) or in short days (10 h light) as indicated in text and figure legends. Seeds of A. thaliana wildtype and transgenic lines were sterilized, stratified and germinated on soil or on agar plates. Agar plates contained half strength Murashige & Skoog (MS) media with 1% sucrose and 0.8% agar at pH 5.7. For germination assays media were supplemented with NaCl, ABA (cat. A1049,SIGMA), PAC (Fluka cat. 46046) or TSA (SIGMA cat.T8852) at the concentrations given in the figures. Germination rate was scored on day 6 after sowing by counting seedlings that had developed green cotyledons. Experiments with adult plants were carried out on soil or in hydroponic culture. For the latter, seeds were germinated on agar plates and 2-3 weeks old seedlings were placed perforated lids of black 1-litre plastic containers. The growth medium consisted in a minimal sufficient nutrient medium (Kellermeier et al., 2013, PLoS Genet. 7). For salt treatment NaCl powder was stirred directly into the growth container to obtain the desired concentration (as stated in the figures). Control media were stirred without adding NaCl. For controlled drought experiments, plants were grown on soil in pots according to a randomized design. Using previously reported methodology (Granier et al., 2006, New Phytologist 169:623-635; Skirycz et al., 2011, Nat. Biotech. 29:212-214), controlled watering was used to impose moderate water stress. After 14 days of plant growth in well-watered soil, watering was reduced so that the relative soil water content of the stressed plants was maintained at 50% of the normal watering regime. Control plants were watered normally.
Germinating seeds arrest growth and development if they encounter low water potentials in the environment (Finkelstein et al., 2008, In Annual Review of Plant Biology (Palo Alto: Annual Reviews), pp. 387-415). The post-imbibition response is mediated by ABA and can be mimicked by external application of ABA. […] To test a function of HDC1 in this process seeds of A. thaliana wildtype, hdc1-1, and HDC1-0X lines were imbibed to break dormancy, and subsequently plated out on agar plates containing different concentrations of NaCl, mannitol, ABA or PAC. A cumulative germination rate (encompassing all post-imbibition stages of seedling development) was scored as the number of seedlings that had developed cotyledons after 6 days.
To test whether histone deactylation was required for ABA-dependence of seed germination and for the effect of HDC1 on this process, we subjected germinating seeds to the histone deacetylase inhibitor trichostatin A (TSA).

A. thaliana plants = system: A. thaliana plants
Description: as §1

[1] = biological target: T1, nYFP-SIN3 (N-terminal half of YFP fused to A. thaliana Sin3-like protein 3) (Arabidopsis thaliana, UniProt O48686 1-1330); assay: ratiometric BiFC in tobacco leaf cells (nYFP-SIN3 with cYFP-HDA19)
T1 construct: positive control partner for cYFP-HDA19; also called AtSin3; SNL3; not shown: N-terminal half of YFP (nYFP) from vector pBiFCt-2in1-NN
T1 sequence (O48686 whole entry, the tested form may be a part): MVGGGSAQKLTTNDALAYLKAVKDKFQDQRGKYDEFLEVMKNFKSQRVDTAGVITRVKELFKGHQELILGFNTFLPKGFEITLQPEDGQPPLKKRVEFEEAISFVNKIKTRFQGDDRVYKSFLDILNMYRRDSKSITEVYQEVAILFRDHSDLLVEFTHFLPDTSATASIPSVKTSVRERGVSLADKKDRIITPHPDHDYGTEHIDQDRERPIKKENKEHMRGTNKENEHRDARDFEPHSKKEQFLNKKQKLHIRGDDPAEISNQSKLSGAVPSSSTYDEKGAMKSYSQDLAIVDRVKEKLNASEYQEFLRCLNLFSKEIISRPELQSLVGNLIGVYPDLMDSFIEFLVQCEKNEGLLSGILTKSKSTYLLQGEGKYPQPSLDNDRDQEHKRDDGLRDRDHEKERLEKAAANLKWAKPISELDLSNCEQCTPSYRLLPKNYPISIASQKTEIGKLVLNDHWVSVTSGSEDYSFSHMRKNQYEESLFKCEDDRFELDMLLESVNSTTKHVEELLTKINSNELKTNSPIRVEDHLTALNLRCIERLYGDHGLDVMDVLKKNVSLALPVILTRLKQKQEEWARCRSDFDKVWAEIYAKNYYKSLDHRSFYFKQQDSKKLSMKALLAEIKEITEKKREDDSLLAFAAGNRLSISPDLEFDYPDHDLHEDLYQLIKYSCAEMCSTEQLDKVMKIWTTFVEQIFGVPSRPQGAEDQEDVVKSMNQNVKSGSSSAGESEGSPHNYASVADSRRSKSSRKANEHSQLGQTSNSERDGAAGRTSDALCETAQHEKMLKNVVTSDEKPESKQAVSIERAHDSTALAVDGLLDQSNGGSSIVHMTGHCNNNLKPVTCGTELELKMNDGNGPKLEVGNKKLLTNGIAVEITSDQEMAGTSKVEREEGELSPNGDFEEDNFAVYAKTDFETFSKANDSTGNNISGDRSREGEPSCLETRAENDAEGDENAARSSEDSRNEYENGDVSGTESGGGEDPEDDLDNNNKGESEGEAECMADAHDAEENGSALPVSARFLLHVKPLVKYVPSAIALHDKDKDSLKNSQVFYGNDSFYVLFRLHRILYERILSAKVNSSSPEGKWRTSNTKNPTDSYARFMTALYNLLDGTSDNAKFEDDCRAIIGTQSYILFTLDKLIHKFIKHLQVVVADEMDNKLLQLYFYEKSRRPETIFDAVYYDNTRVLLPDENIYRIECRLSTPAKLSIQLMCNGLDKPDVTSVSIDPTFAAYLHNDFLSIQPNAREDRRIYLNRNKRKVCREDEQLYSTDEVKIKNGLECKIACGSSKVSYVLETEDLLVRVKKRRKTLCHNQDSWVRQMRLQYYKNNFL

[2] = biological target: T2, cYFP-SIN3 (C-terminal half of YFP fused to A. thaliana Sin3-like protein 3) (Arabidopsis thaliana, UniProt O48686 1-1330); assay: ratiometric BiFC in tobacco leaf cells (nYFP-HDC1 with cYFP-SIN3)
T2 construct: negative control partner for nYFP-HDC1; also called AtSin3; SNL3; not shown: C-terminal half of YFP (cYFP) from vector pBiFCt-2in1-NN
T2 sequence (O48686 whole entry, the tested form may be a part): as above

[3] = biological target: B1; assay: ratiometric BiFC in tobacco leaf cells (nYFP-HDC1 with cYFP-HDA19)
Description: (§2) Fluorescence in tobacco epidermal cells was assessed two days post infiltration using a CLSM-510-META-UV confocal microscope (Zeiss, Jena). For single protein localization GFP fluorescence was excited at 488 nm with light from an Argon laser and collected after passage through an NFT545 dichroic mirror with a 505 nm long pass filter. For co-localization experiments GFP fluorescence was collected with a 505-530 band pass filter. RFP fluorescence was excited at 543 nm with light from a Helium Neon laser and was collected after passage through an NFT545 dichroic mirror and a 560-615 nm band pass filter. YFP fluorescence was excited at 514 nm with light from Argon laser and was collected using lambda mode between 520-550 nm. Co-localization plane and line scans were evaluated using Zeiss LSM 510 AIM software (v3.2).
(§3) To investigate whether HDC1 is a member of HDAC protein complexes in plants we tested co-localization and direct interaction of HDC1 with known HDACs of A. thaliana. […] Direct interaction was investigated by bimolecular fluorescence complementation (BiFC). To avoid misinterpretation of background fluorescence we used a new ratiometric BiFC assay (Grefen and Blatt, 2012, supra) in which N- and C-terminal halves of yellow fluorescent protein (YFP), fused to HDC1 and HDA6/19 respectively, and a full-length RFP, are expressed from a single vector FIG. 4A). […]

[4] = biological target: T3, cYFP-HDA6 (C-terminal half of YFP fused to A. thaliana HISTONE DEACETYLASE 6) (Arabidopsis thaliana, UniProt Q9FML2 1-471); assay: ratiometric BiFC in tobacco leaf cells (nYFP-HDC1 with cYFP-HDA6)
T3 construct: expressed transiently in tobacco leaf cells; not shown: C-terminal half of YFP (cYFP) from vector pBiFCt-2in1-NN
T3 sequence (looked up): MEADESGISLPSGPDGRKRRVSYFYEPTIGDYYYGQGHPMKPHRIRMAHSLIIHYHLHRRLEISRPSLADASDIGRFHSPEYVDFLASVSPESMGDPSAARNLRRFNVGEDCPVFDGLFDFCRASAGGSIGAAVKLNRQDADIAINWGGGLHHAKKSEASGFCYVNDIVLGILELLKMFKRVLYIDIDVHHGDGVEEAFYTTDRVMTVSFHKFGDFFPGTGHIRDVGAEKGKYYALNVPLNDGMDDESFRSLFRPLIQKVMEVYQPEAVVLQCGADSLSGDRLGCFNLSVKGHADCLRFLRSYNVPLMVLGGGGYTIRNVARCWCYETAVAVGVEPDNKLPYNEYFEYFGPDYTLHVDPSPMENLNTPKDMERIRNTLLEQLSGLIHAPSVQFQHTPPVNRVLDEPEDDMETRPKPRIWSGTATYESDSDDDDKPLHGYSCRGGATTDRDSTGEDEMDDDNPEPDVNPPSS
Description: as §2, §3

[5] = 150 mM NaCl for 24 hours, all lines

Molecule: CC1=CC(=O)CC(C)(C)[C@@]1(O)/C=C/C(C)=C\C(=O)O [ABA, Abscisic acid]
- cumulative germination rate (A. thaliana seeds): decrease in germination rates

Molecule: OC[C@@H](O)[C@@H](O)[C@H](O)[C@H](O)CO [mannitol]
- cumulative germination rate (A. thaliana seeds): decrease in germination rates

Molecule: [Cl-].[Na+] [NaCl]
- cumulative germination rate (A. thaliana seeds): decrease in germination rates
- chlorosis or desiccation (A. thaliana plants; 80 mM NaCl, 6 days): did not produce severe chlorosis or desiccation
- growth (A. thaliana plants; 80 mM NaCl, 6 days, all lines): slowed growth
- shoot water content (A. thaliana plants; 80 mM NaCl, after 6 days, all lines, from 92±1% without salt): 86±1%
- ABA biosynthesis (shoot ABA levels) (A. thaliana plants; [5]): efficiently induced
- transcript levels of ABA-receptor PYL4 and 'drought-repressed' gene DR4 (A. thaliana plants; [5]): efficiently repressed

Molecule: CC(/C=C/C(=O)NO)=C\[C@@H](C)C(=O)c1ccc(N(C)C)cc1 [TSA, trichostatin A]
- effect on ABA-sensitivity of germination (A. thaliana seeds; HDC1-overexpressing lines): increased ABA-sensitivity
- effect on seed germination (A. thaliana seeds; low-micromolar TSA (0.3 or 3 μM), in the absence of ABA): no effect on seed germination
- effect on ABA-sensitivity of germination (A. thaliana seeds; wildtype plants, 0.3 μM TSA at 0.2 μM ABA): significant effect
- effect on ABA-sensitivity of germination (A. thaliana seeds; wildtype plants, 3 μM TSA at 0.4 μM ABA): significant effect
- effect on ABA-sensitivity of germination (A. thaliana seeds; wildtype plants, dose-dependent): increased the ABA-sensitivity

Molecule: CC(C)(C)[C@@H](O)[C@@H](Cc1ccc(Cl)cc1)n1cncn1 (racemic) [PAC, paclobutrazol]
- cumulative germination rate (A. thaliana seeds): decrease in germination rates

Molecule: B1
- binding result [1]: binds

- binding result [2]: no binding
- binding result [3]: binds
- binding result [4]: binds
B2: nYFP-HDC1 (N-terminal half of YFP fused to full length A. thaliana HISTONE DEACETYLASE COMPLEX 1) (other)
chain: MSGVPKRSHEEGVTHPSSSSSVAKYPHEDSGSYPKSPHQPVTPPPAQVHHNHQQPHQHPQSQSQSQPQPHLQALPHPHSHSHSHSPLAAAASASAPYEVESRTVVKVARSEPRDGERRSPLPLVYRSPSLPTTVSSSDPHLTHAPVPMEPRDGAKDGREIRVESRENRSDGREIYGETKREIQGPKGDRDVKFERSVDDFSGKGNTGSYTRNDGREMYGETKREIQGPKSDRDAKFERPGDDFSGKSNAGSYTRDTKFDRENQNYNEQKGEIKMEKEGHAHLAWKEQKDYHRGKRVAEGSTANVDPWVVSRGNPQGPTEVGPKDLSAPVEGSHLEGRETVGENKVDAKNEDRFKEKDKKRKELKHREWGDRDKDRNDRRVSVLVGSVMSEPKEIGREERESDRWERERMEQKDRERNKEKDKDHIKREPRTGAEKEISQNEKELGEASAKPSEQEYVAPEQKKQNEPDNCEKDERETKEKRRERDGDSEAERAEKRSRISEKESEDGCLEGEGATEREKDAFNYGVQQRKRALRPRGSPQTTNRDNVRSRSQDNEGVQGKSEVSIVVYKVGECMQELIKLWKEYDLSHPDKSGDFANNGPTLEVRIPAEHVTATNRQVRGGQLWGTDIYTDDSDLVAVLMHTGYCRPTASPPPPTMQELRTTIRVLPSQDYYTSKLRNNVRSRAWGAGIGCSYRVERCYILKKGGGTIELEPSLTHSSTVEPTLAPMAVERSMTTRAAASNALRQQRFVREVTIQYNLCNEPWIKYSISIVADKGLKKPLFTSARLKKGEVLYLETHSCRYELCFAGEKTIKAIQASQQQSSHEAMETDNNNNKSQNHLTNGDKTDSDNSLIDVFRWSRCKKPLPQKLMRSIGFPLPADHIEVLEENLDWEDVQWSQTGVWIAGKEYTLARVHFLSPN
notes: Expressed transiently in tobacco leaf cells from a 2-in-1 BiFC vector together with the cYFP partner and a full-length RFP; not shown: N-terminal half of YFP (nYFP) from vector pBiFCt-2in1-NN
